US20070191336A1 (priority 2003, published 2007)
Where two headings read alike, the source gives them in different places. Each block holds one molecule with its values, some of them ahead of it.

Key:
[1] = test system: LPS-induced TNF-alpha release from human peripheral blood mononuclear leukocytes; experiment: Human peripheral blood mononuclear leukocyte cell assay (LPS-induced TNF-alpha release, ELISA); format: cell-based; conditions: 25 ng/mL LPS, 16 hours incubation, read-out: IC50 for inhibition of TNF-alpha release
Protocol: The quantity of LPS-induced tumor necrosis factor-alpha (TNF-alpha) cytokine release is measured by a commercially available Enzyme-Linked Immunosorbent Assay (ELISA) kit. Test compounds are evaluated for their ability to inhibit TNF-alpha release. […] Test compounds evaluated are illustrated in Table 4.

[2] = biological target: T1, phospho p-38 alpha kinase (Homo sapiens, UniProt Q16539); experiment: P-38 alpha kinase assay (spectrophotometric, pyruvate kinase/lactate dehydrogenase coupled); format: biochemical; conditions: for IC50: rates from […] to 2 h time frame; for inhibition at 10 µM / % Inhibition @ concentration: at 10 uM
T1 construct: purchased Panvera
T1 sequence (Q16539 whole entry): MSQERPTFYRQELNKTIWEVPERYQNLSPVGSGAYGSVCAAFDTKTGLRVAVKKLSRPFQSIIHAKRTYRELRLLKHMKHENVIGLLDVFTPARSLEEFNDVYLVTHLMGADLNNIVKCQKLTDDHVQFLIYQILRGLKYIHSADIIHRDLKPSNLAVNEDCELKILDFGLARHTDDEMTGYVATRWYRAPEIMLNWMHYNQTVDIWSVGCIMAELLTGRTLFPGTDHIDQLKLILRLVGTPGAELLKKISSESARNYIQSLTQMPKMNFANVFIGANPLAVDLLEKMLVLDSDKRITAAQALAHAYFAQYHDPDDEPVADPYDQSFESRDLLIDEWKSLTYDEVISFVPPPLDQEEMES

[3] = biological target: p38 MAP kinase (unphosphorylated p38-alpha kinase) (Homo sapiens, UniProt Q16539); experiment: P38 MAP kinase binding assay (fluorescence competition with SKF 86002 probe); conditions: for Time-dependent: time-dependent if IC50 values decrease with the reaction time (more than two-fold in four hours)
Sequence of p38 MAP kinase (unphosphorylated p38-alpha kinase) (Q16539 whole entry): as above
Protocol: The reaction was initiated by addition of the enzyme. […] By comparison of rfu (relative fluorescence unit) values with that of a control (in the absence of an inhibitor), the percentage of inhibition at each concentration of the inhibitor was calculated. IC50 value for the inhibitor was calculated from the % inhibition values obtained at a range of concentrations of the inhibitor using Prism. When time-dependent inhibition was assessed, the plate was read at multiple reaction times such as 0.5, 1, 2, 3, 4 and 6 hours. The IC50 values were calculated at the each time point. An inhibition was assigned as time-dependent if the IC50 values decrease with the reaction time (more than two-fold in four hours).

[4] = read-out: % Inhibition @ concentration, Table 3

IC50 [1]: 6100 nM
Structure (SMILES): CC(C)(C)c1cc(NC(=O)Nc2cccc3ccccc23)n(-c2cccc(CN3C(=O)CNS3(=O)=O)c2)n1 [Example 3, 1-(3-tert-butyl-1-{[3-(1,1,3-trioxo-[1,2,5]thiadiazolidin-2-yl)methyl]phenyl}-1H-pyrazol-5-yl)-3-(naphthalen-1-yl)urea]

Structure (SMILES): CC1(C(=O)O)CC2(C)CC(C)(C1)C(=O)N(Cc1cccc(-n3nc(C(C)(C)C)cc3NC(=O)Nc3cccc4ccccc34)c1)C2=O (stereo not drawn) [Example 11]
IC50 ([2]; Table 2): 953 nM
IC50 ([3]; read-out: IC50): 2150 nM
Time-dependent [3]: No

Structure (SMILES): CC1(C(=O)O)CC2(C)CC(C)(C1)C(=O)N(Cc1cccc(-n3nc(C(C)(C)C)cc3NC(=O)Nc3ccc(Cl)cc3)c1)C2=O (stereo not drawn) [Example 12]
inhibition at 10 µM ([2]; read-out: % inhibition @ concentration, Table 2): 70%
IC50 [3]: ~10000 nM
Time-dependent [3]: No

IC50 [1]: 6320 nM
Structure (SMILES): CC1(C)C(=O)NN(Cc2cccc(-n3nc(C(C)(C)C)cc3NC(=O)Nc3cccc4ccccc34)c2)C1=O [Example 13, 1-(3-tert-butyl-1-{3-[(4,4-dimethyl-3,5-dioxopyrazolidin-1-yl)methyl]phenyl}-1H-pyrazol-5-yl)-3-(naphthalen-1-yl)urea]

Structure (SMILES): CC(C)(C)c1cc(NC(=O)Nc2cccc3ccccc23)n(-c2cccc(CC(=O)N3CCOCC3)c2)n1 [Example 21, 1-{3-tert-butyl-1-[3-(2-morpholino-2-oxoethyl)phenyl]-1H-pyrazol-5-yl}-3-(naphthalene-1-yl)urea]
IC50 ([2]; Table 2): 171 nM
IC50 [3]: 48 nM
Time-dependent [3]: Yes
IC50 [1]: 3400 nM

IC50 [1]: 2680 nM
Structure (SMILES): CC(C)(C)c1cc(NC(=O)Nc2cccc3ccccc23)n(-c2cccc(CCC(=O)O)c2)n1 [Example 29]

IC50 [1]: 4520 nM
Structure (SMILES): CC(C)(C)c1cc(NC(=O)Nc2cccc3ccccc23)n(-c2ccc(CCC(=O)O)cc2)n1 [Example 31, 3-{4-[3-tert-butyl-5-(3-(naphthalene-1-yl)ureido]-1H-pyrazol-1-yl}phenyl)propanonic acid]

Structure (SMILES): CC(C)(C)c1cc(NC(=O)Nc2cccc3ccccc23)n(-c2ccc(CN)cc2)n1 [Example 45, 1-{3-tert-butyl-1-[4-(aminomethyl)phenyl]-1H-pyrazol-5-yl}-3-(naphthalen-1-yl)urea]
IC50 ([2]; Table 2): 480 nM
IC50 ([3]; read-out: IC50): 1860 nM
Time-dependent [3]: No

IC50 [1]: 2340 nM
Structure (SMILES): CC(C)(C)c1cc(NC(=O)Nc2ccc(Br)cc2)n(-c2ccc(CO)cc2)n1 [Example 60]

IC50 [1]: 3490 nM
Structure (SMILES): CCOC(=O)CCc1ccc(-n2nc(C(C)(C)C)cc2NC(=O)Nc2cccc3ccccc23)cc1 [Example 296, ethyl 3-(4-(3-tert-butyl-5-(3-(naphthalen-1-yl)ureido)-1H-pyrazol-1-yl)phenyl)propanoate]

IC50 [1]: 4780 nM
Structure (SMILES): CC(C)(C)c1cc(NC(=O)Nc2cccc3ccccc23)n(-c2cccc(CCN3CCOCC3)c2)n1 [Example 300]

IC50 ([2]; Table 3): 52 nM
Structure (SMILES): COC(=O)COc1ccc(-n2nc(C(C)(C)C)cc2NC(=O)Nc2cccc3ccccc23)cc1 [Example 519, 1-(3-t-butyl-1-(4-(carbomethoxymethyl)oxyphenyl)-1H-pyrazol-5-yl)-3-(naphthalen-1-yl)urea]

IC50 ([2]; Table 3): 9.2 nM
Structure (SMILES): CC(C)(C)c1cc(NC(=O)Nc2cccc3ccccc23)n(-c2ccc(OCC(=O)O)cc2)n1 [Example 520, 1-(3-t-butyl-1-(4-(carboxymethyl)oxyphenyl)-1H-pyrazol-5-yl)-3-(naphthalen-1-yl)urea]

IC50 ([2]; Table 3): 780 nM
Structure (SMILES): CC(C)(C)c1cc(NC(=O)Nc2ccccc2)n(-c2ccc(O)cc2)n1 [Example 522, 1-(3-t-butyl-1-(4-hydroxyphenyl)-1H-pyrazol-5-yl)-3-phenylurea]

Structure (SMILES): CCOC(=O)COc1ccc(-n2nc(C(C)(C)C)cc2NC(=O)Nc2ccc(Cl)cc2)cc1 [Example 525]
inhibition at 1 µM [2, 4]: 11%

Structure (SMILES): CC(C)(C)c1cc(NC(=O)Nc2ccc(Cl)cc2)n(-c2ccc(OCC(=O)O)cc2)n1 [Example 526, 1-(3-t-butyl-1-(4-(carboxymethyl)oxyphenyl)-1H-pyrazol-5-yl)-3-(4-chlorophenyl-1-yl)urea]
inhibition at 0.1 µM ([2]; read-out: % Inhibition @ concentration, Table 3, at 0.1 uM): 25%
inhibition at 1 µM [2, 4]: 70%

Structure (SMILES): CC(C)(C)c1cc(NC(=O)Nc2cccc3ccccc23)n(-c2cccc(OCCCN3CCS(=O)(=O)CC3)c2)n1 [Example 528, 1-(5-t-butyl-2-{3-[3-(1,1-dioxo-16-thiomorpholin-4-yl)-propoxy]-phenyl}-2H-pyrazol-3-yl)-3-naphthalen-1-yl-urea]
inhibition at 1 µM [2, 4]: 35%

Structure (SMILES): CCOC(=O)CCc1cccc(-n2nc(C(F)(F)F)cc2NC(=O)Nc2ccc(Cl)cc2)c1 [Example 529, 3-(3-{5-[3-(4-chloro-phenyl)-ureido]-3-trifluoromethyl-pyrazol-1-yl}-phenyl)-propionic acid ethyl ester]
inhibition at 10 µM [2, 4]: 40%

Structure (SMILES): O=C(O)CCc1cccc(-n2nc(C(F)(F)F)cc2NC(=O)Nc2ccc(Cl)cc2)c1 [Example 530, 3-(3-(5-(3-(4-chlorophenyl)ureido)-3-(trifluoromethyl)-1H-pyrazol-1-yl)phenyl)propanoic acid]
inhibition at 10 µM [2, 4]: 83%

Structure (SMILES): CCOC(=O)CCc1cccc(-n2nc(C)cc2NC(=O)Nc2ccc(Cl)cc2)c1 [Example 531, 3-(3-{5-[3-(4-chloro-phenyl)-ureido]-3-methyl-pyrazol-1-yl}-phenyl)-propionic acid ethyl ester]
inhibition at 10 µM [2, 4]: 14%

Structure (SMILES): CC(C)c1cc(NC(=O)Nc2ccc(Cl)cc2)n(-c2cccc(CCC(=O)O)c2)n1 [Example 532]
% Inhibition @ concentration ([2]; Table 3): 66% @ 10

Structure (SMILES): CC(C)c1cc(NC(=O)Nc2ccc(Cl)cc2)n(-c2cccc(CCC(=O)O)c2)n1 [Example 533, 3-(3-(5-(3-(4-chlorophenyl)ureido)-3-isopropyl-1H-pyrazol-1-yl)phenyl)propanoic acid]
% Inhibition @ concentration ([2]; Table 3): 39% @ 10

IC50 ([2]; Table 2): 437 nM
Structure (SMILES): CC(C)(C)c1cc(NC(=O)Nc2ccc(Cl)cc2)n(-c2cccc(CO)c2)n1 [Example F]
